Results from US7345096B2, “Use of norepinephrine reuptake modulators for preventing and treating vasomotor symptoms” (Wyeth, priority 2002, dated 2008).

Legend:
[1] = tested on: naloxone-induced flush (tail skin temperature); test: Morphine-dependent rat model of hot flush (MD model); settings: for ED50: Rattus norvegicus, read-out: ED50 value, abatement of naloxone-induced flush; for effect on naloxone-induced flush at maximal flush: 1 hour prior to naloxone, 15 minutes post-naloxone
Protocol: (§1) Dosinq: All doses were prepared based on mg/kg.
(§2) Animals: Ovariectomized Sprague-Dawley rats (180-220 g) were obtained from a commercial vendor (Taconic, Germantown, N.Y.) and individually housed under 12 hours light/dark cycle in a room maintained at 25° C. Animals were provided with standard rat chow and water ad libitum.
Morphine-dependent model: Ovariectomized rats were injected once daily for 8-9 days with vehicle to minimize stress responses and then administered compound(s) on test day. On day 4 of dosing, morphine dependence was induced by sc implantation of two slow-release morphine pellets (75 mg/pellet) in the dorsal scapular region. […] Four to six days after implantation, morphine withdrawal was induced with an opioid antagonist (naloxone) that causes a transient increase in TST. […] Rats were mildly sedated with ketamine and a thermistor connected to a MacLab data acquisition system was taped to the base of the tail. Tail skin temperature was then monitored continuously for 35 minutes to establish a baseline temperature. Naloxone was subsequently administered and TST was measured for an additional 35 to 60 minutes (total recording time 70 to 95 minutes).
Statistical analysis: To analyze changes in TST induced by naloxone in morphine-dependent rats, all data were analyzed using a two factor repeated measure ANOVA for “treatment” and “time.” The model was fit to test whether there were significant differences in the responses between treatment groups. Naloxone administration is designated as time zero and data is then analyzed at 5 minute intervals. The first three readings were averaged and used as baseline TST scores. All data were analyzed as ΔTST (TST for each time point—baseline). Multiple comparisons (LSD p-values) among the treatment groups at each time point were used for the analysis. Efficacy of hot flush abatement was determined by evaluating statistical differences at the peak response time of 15 minutes post-naloxone, when the maximal change in TST is observed. A customized SAS-excel (SAS Institute, Cary, N.C.) application was used applying a four parameter logistic model to determine ED50 values. A logistic dose transformation was performed on ΔTST. Maximum flush (ΔTST at 15 minutes post-naloxone) was used in the analysis and the minimum was locked at zero.

[2] = tested on: tail skin temperature during active (dark) phase; test: OVX-induced thermoregulatory dysfunction telemetry model
Protocol: as §1, §2
A temperature and physical activity transmitter (PhysioTel TA10TA-F40, Data Sciences International) was implanted subcutaneously in the dorsal scapular region and the tip of the temperature probe was tunneled subcutaneously 2.5 cm beyond the base of the tail. After a 7-day recovery period, TST readings were continuously recorded for the remainder of the study. Tail skin temperature readings were collected from each animal every 5 minutes with values obtained over a 10 second sampling period. The day before test day, an average baseline TST value was calculated for each animal by averaging temperature readings recorded during the 12 hours active (dark) phase. In these studies, animals were dosed approximately 1 hour prior to the onset of dark cycle.
Evaluation of a compound's ability to restore normal lowering of TST in the telemetry model was analyzed using hourly TST values calculated for each animal by averaging the 12 temperature readings obtained every 5 minutes over that recording time. To analyze ΔTST in the telemetry model, a two factors repeated measure ANOVA was performed. The model used for analysis was ΔTST=GRP (group)+HR (hours)+GRP*HR+BASELINE. Thus, the reported least squares means are the expected mean values as if both groups had the same baseline value. Post-hoc tests of hourly GRP*HR samples are t-tests of the difference between groups for each hour. To be conservative, a result was not considered significant unless the p-value was <0.025. All analyses were performed using SAS PROC MIXED (SAS, Carey, N.C.).

`CN1CCN(CC(c2cccc(Cl)c2)C2(O)CCCCC2)CC1` (racemic) [1-[1-(3-chlorophenyl)-2-(4-methyl-1-piperazinyl)ethyl]cyclohexanol] was tested, and the “changes in TST over time after naloxone” value ([1]; dose response, sc) was “dose-dependently abate the naloxone-induced flush”.
With `CN(C)CC(c1ccc(O)cc1)C1(O)CCCCC1` (centres unmarked) [DVS-233, O-desmethyl-venlafaxine] the “changes in TST over time” value ([2]; 60 mg/kg sc) was “significantly and transiently decreases TST during the active phase” and the ED50 ([1]; sc) was 30 mg/kg.
In the case of `CN(C)CC(c1cccc(Cl)c1)C1(O)CCCCC1` (centres unmarked) [WY-781], the “effect on naloxone-induced flush at maximal flush” value (from here on “effect … at maximal flush”) ([1]; 30 mg/kg intraperitoneally) is reported as “abated the naloxone-induced flush”.
With `CN(C)CC(c1cccc(C(F)(F)F)c1)C1(O)CCCCC1` (centres unmarked) [WY-867] the “effect … at maximal flush” value ([1]; 30 mg/kg intraperitoneally) was “abated the naloxone-induced flush”.
With `CCC1(c2cnc[nH]2)Cc2ccccc2C1` [atipamezole] the “changes in TST after naloxone vs vehicle” value ([1]; atipamezole 0.3 mg/kg sc alone, 55 minutes prior to naloxone) was “not significantly different from vehicle treated rats”.
With `CNCCCN1c2ccccc2CCc2ccccc21` [desipramine] the “changes in TST over time” value ([2]; 10 mg/kg sc) was “significantly decreases TST over the entire length of the active phase”, the “abatement of naloxone-induced flush” value ([1]; 1 mg/kg sc, 40 minutes prior to naloxone, alone) was “approximately 50%” and the “abatement of hot flush” value ([1]; 3 mg/kg desipramine co-administered with 10 mg/kg dose of SRI) was 100%. The ED50 ([1]; sc) was 1 mg/kg, the “effect … at maximal flush” value ([1]; dose response, sc) was “dose-dependently abates the naloxone-induced flush” and the “reduction of TST compared to vehicle treated rats in naloxone-induced hot flush” value ([1]; low dose) was 50%.
In the case of `CNCCC(Oc1ccc(C(F)(F)F)cc1)c1ccccc1` (centres unmarked) [fluoxetine], the “effect on naloxone-induced flush” value ([1]; fluoxetine 10 mg/kg sc alone) is reported as “did not abate the naloxone-induced flush”.
`CCOc1ccccc1OC(c1ccccc1)C1CNCCO1` (centres unmarked) [reboxetine] was tested, and the “changes in TST over time after naloxone” value ([1]; dose response, sc) was “dose-dependently abate the naloxone-induced flush” and the “effect … at maximal flush” value ([1]; dose response, sc) was “dose-dependently abates the naloxone-induced flush”.
In the case of `COc1ccc(C(CN(C)C)C2(O)CCCCC2)cc1` (centres unmarked) [venlafaxine], the “changes in TST over time” value ([2]; 15 mg/kg sc) is reported as “significantly and transiently decreased TST during the active phase” and the “effect on elevated naloxone-dependent hot flush induced by atipamezole” value ([1]; rat, in vivo) is reported as “able to alleviate”.
